Results as given in patent US8835632B2, “Methods to increase the photostability of dyes” (The University of North Carolina at Chapel Hill, priority 2007, dated 2014).

Columns and labels:
Type in all cases: physicochemical
[1] = Absorption and fluorescence spectra, extinction coefficient, fluorescence quantum yield
Method: Absorption spectra were recorded on a Hewlett-Packard 8453 diode array UV-Vis spectrophotometer (Agilent Technologies, Inc., Santa Clara, Calif.), and fluorescence measurements were taken on a SPEX® Fluorolog 2 spectrofluorometer (HORIBA Jobin Yvon, Inc., Edison, N.J.). Melting points are not corrected. NMR spectra were obtained on a Varian Mercury 300 MHz (Varian, Inc., Palo Alto, Calif.) or on a Bruker 300 MHz DRX 300 spectrometer (Bruker Biospin Corp., Billerica, Mass.). Mass spectra were obtained on a Hewlett-Packard 1100 high-performance liquid chromatograph equipped with an 1100 mass selective detector (MS-ESI) (Agilent Technologies, Inc.).
With decreasing solvent polarity, the absorption maximum of dyes 1a-b, 2a-d shifted to longer wavelengths, and the intensity of the transition increased (Table 10, FIG. 11).
The SCRF/VSCRF predicted emission energies and the solute dipole moments before and after the vertical emission process are given in Table 16. The dipole moments of AI-BA(4) and AI-SO(4) are further decreased on the S1 surface after geometry relaxation (in MeOH solution), and then increased during the S1→S0 transition. This observation is consistent with the blue shifts of the emission bands of AI-BA(4) and AI-SO(4) with increasing solvent polarity from C6H6 to MeOH. By contrast, the dipole moment of I-SO further decreases after S1 state geometry relaxation, and then decreases during the vertical emission process. This observation also is in agreement with the red shift of the I-SO emission band with increasing solvent polarity from C6H6 to MeOH. Similarly to the absorption case, a negligible red shift (ΔEem=0.017 eV) was predicted for the emission band of I-TBA with increasing solvent polarity. A small red shift from C6H6 to DMF (with ΔEem=0.020 eV, or Δλmax=6 nm) is observed. The nearly equal emission energy observed in C6H6 and MeOH can again result in the explicit interactions between the solute and solvent molecules.

[2] = Photobleaching under constant illumination from a halogen tungsten lamp filtered through glass; conditions: MeOH; for kph(rel) (relative rate of photobleaching): with respect to standard I-TBA in MeOH
Source text: The photostability of dyes can be important for applications in living cells. The mechanism of photobleaching for merocyanines of varying structure has been examined See Toutchkine et al., J. Am. Chem. Soc. 125:4132-4145 (2003). The photostability of the presently disclosed dyes was characterized by exposing them to constant illumination from a halogen tungsten lamp filtered through glass. This broad spectrum light source provided essentially equal intensity throughout the spectral range where the dyes absorb and where they would be irradiated in vivo (about 600 nm to about 650 nm).

[3] = Relative rate of reaction with chemically generated singlet oxygen in DMSO; conditions: 2.5 mM, 1O2 from 1,4-dimethylnaphtalene-1,4-endoperoxide
Method: The bleaching rates for the dyes differed by two orders of magnitude. The relative rate constants kr (rel) for product formation during reaction with singlet oxygen were measured by comparing the percent conversions for dyes dissolved in DMSO containing a fixed amount of ^1O2 (2.5 mM solutions; ^1O2 generated by decomposition of 1,4-dimethylnaphtalene-1,4-endoperoxide). The rates were generally higher for dyes with a polar ground state (1a, 2a, 2b, 2d) than for the dyes with their ground state at the “cyanine limit” (3, 4). […] Olefins without allylic hydrogens react with singlet oxygen to form dioxetanes. Dioxetanes are unstable and decompose, to form two carbonyl compounds.

CCN1C(=O)\C(=C/C=C/C=C2/N(C)c3ccccc3C2(C)C)C(O)N(CC)C1=S (stereo not shown) [I-TBA, reference compound]
Absorption energy Eabs Exp ([1]; C6H6): 2.123 eV
Emission energy Eem Exp ([1]; C6H6): 2.050 eV
Absorption energy Eabs Exp ([1]; MeOH): 2.127 eV
Emission energy Eem Exp ([1]; MeOH): 2.056 eV
Observed absorption (ε) ([1]; Table 10, BuOH): (190000)
Observed absorption λmax ([1]; Table 10, BuOH): 589 nm
Observed absorption (ε) ([1]; Table 10, C6H6): (127000)
Observed absorption λmax ([1]; Table 10, C6H6): 584 nm
Observed absorption (ε) ([1]; Table 10, DMF): (183000)
Observed absorption λmax ([1]; Table 10, DMF): 589 nm
Observed absorption (ε) ([1]; Table 10, MeOH): (173000)
Observed absorption λmax ([1]; Table 10, MeOH): 583 nm
Observed absorption (ε) ([1]; Table 10, OcOH): (180000)
Observed absorption λmax ([1]; Table 10, OcOH): 590 nm
Absorption Exp wavelength ([1]; Table 12, C6H6): 585 nm
Absorption Exp wavelength ([1]; Table 12, MeOH): 583 nm
Observed emission (Φ) ([1]; Table 15, BuOH): 0.61
Observed emission λmax ([1]; Table 15, BuOH): 609 nm
Observed emission (Φ) ([1]; Table 15, C6H6): 0.20
Observed emission λmax ([1]; Table 15, C6H6): 605 nm
Observed emission (Φ) ([1]; Table 15, DMF): 0.94
Observed emission λmax ([1]; Table 15, DMF): 611 nm
Observed emission (Φ) ([1]; Table 15, MeOH): 0.26
Observed emission λmax ([1]; Table 15, MeOH): 603 nm
Observed emission (Φ) ([1]; Table 15, OcOH): 0.99
Observed emission λmax ([1]; Table 15, OcOH): 609 nm
Observed red shift of emission ΔEem ([1]; from C6H6 to DMF): 0.020 eV
Observed red shift of emission Δλmax ([1]; from C6H6 to DMF): 6 nm
Observed red shift of absorption Δλmax ([1]; from C6H6 to OcOH): 6 nm
Observed blue shift of absorption Δλmax ([1]; from OcOH to MeOH): 7 nm
kph * 10^6 (absolute rate of photobleaching) [2]: 0.34 s^−1
kph(rel) (relative rate of photobleaching) [2]: 1.00
kr(rel) (relative rate constants for product formation during reaction with singlet oxygen produced chemically) [3]: 1.00

CC1(C)c2ccccc2-[n+]2ccc(/C=C/C3=C([O-])c4ccccc4S3(=O)=O)cc21 [AI-SO(2)]
Observed absorption (ε) ([1]; Table 10, BuOH): (120000)
Observed absorption λmax ([1]; Table 10, BuOH): 554 nm
Observed absorption (ε) ([1]; Table 10, C6H6): (235000)
Observed absorption λmax ([1]; Table 10, C6H6): 570 nm
Observed absorption (ε) ([1]; Table 10, CH2Cl2): (218000)
Observed absorption λmax ([1]; Table 10, CH2Cl2): 561 nm
Observed absorption (ε) ([1]; Table 10, CH3CN): (149000)
Observed absorption λmax ([1]; Table 10, CH3CN): 549 nm
Observed absorption (ε) ([1]; Table 10, DMF): (157000)
Observed absorption λmax ([1]; Table 10, DMF): 556 nm
Observed absorption (ε) ([1]; Table 10, DMSO): (126000)
Observed absorption λmax ([1]; Table 10, DMSO): 555 nm
Observed absorption (ε) ([1]; Table 10, EtOH): (111000)
Observed absorption λmax ([1]; Table 10, EtOH): 549 nm
Observed absorption (ε) ([1]; Table 10, MeOH): (92000)
Observed absorption λmax ([1]; Table 10, MeOH): 542 nm
Observed absorption (ε) ([1]; Table 10, OcOH): (150000)
Observed absorption λmax ([1]; Table 10, OcOH): 559 nm
Observed absorption (ε) ([1]; Table 10, i-PrOH): (132000)
Observed absorption λmax ([1]; Table 10, i-PrOH): 553 nm
Observed emission (Φ) ([1]; Table 15, BuOH): 0.16
Observed emission λmax ([1]; Table 15, BuOH): 567 nm
Observed emission (Φ) ([1]; Table 15, C6H6): 0.02
Observed emission λmax ([1]; Table 15, C6H6): 577 nm
Observed emission (Φ) ([1]; Table 15, CH2Cl2): 0.06
Observed emission λmax ([1]; Table 15, CH2Cl2): 571 nm
Observed emission (Φ) ([1]; Table 15, CH3CN): 0.06
Observed emission λmax ([1]; Table 15, CH3CN): 561 nm
Observed emission (Φ) ([1]; Table 15, DMF): 0.16
Observed emission λmax ([1]; Table 15, DMF): 567 nm
Observed emission (Φ) ([1]; Table 15, DMSO): 0.24
Observed emission λmax ([1]; Table 15, DMSO): 567 nm
Observed emission (Φ) ([1]; Table 15, EtOH): 0.09
Observed emission λmax ([1]; Table 15, EtOH): 563 nm
Observed emission (Φ) ([1]; Table 15, MeOH): 0.05
Observed emission λmax ([1]; Table 15, MeOH): 561 nm
Observed emission (Φ) ([1]; Table 15, OcOH): 0.21
Observed emission λmax ([1]; Table 15, OcOH): 569 nm
Observed emission (Φ) ([1]; Table 15, i-PrOH): 0.13
Observed emission λmax ([1]; Table 15, i-PrOH): 565 nm
kph * 10^6 (absolute rate of photobleaching) [2]: 0.7 s^−1
kph(rel) (relative rate of photobleaching) [2]: 2.1
kr(rel) (relative rate constants for product formation during reaction with singlet oxygen produced chemically) [3]: 20.3
